Results from PMC10447463, “Data-mining unveils structure–property–activity correlation of viral infectivity enhancing self-assembling peptides” (Nature Communications, 2023).

Tests used:
TZM-bl cells = format: cell-based; conditions: CellTiter-Glo, mean of n = 3 replicates; for viability 0.26 µM: peptide 0.26 µM; for viability 1.3 µM: peptide 1.3 µM; for viability 6.5 µM: peptide 6.5 µM
Method in brief: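 Viability of TZM-bl cells (10,000 seeded) after 3 days with serially diluted peptides, measured by CellTiter-Glo luminescence. Values normalized to 100% metabolic activity; triplicates.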

[1] = Aggregate analysis by widefield fluorescence microscopy; format: physicochemical
Method in brief: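 Brightfield images were acquired alongside ThT fluorescence so that aggregates lacking ThT signal were also captured. Preformed peptide fibrils had been incubated 1 d at RT in PBS before dilution to 0.1 mg/mL in 50 µM ThT, and particles above 10 µm^2 were then counted and sized automatically.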

[2] = Fig S8 panels A, C, 3 fields of 1330 µm x 1330 µm
[3] = Fig S8 panels B, D, average aggregate area, 3 fields of 1330 µm x 1330 µm
[4] = Fig S8 panels B, D, median aggregate area, 3 fields of 1330 µm x 1330 µm
[5] = Fig S8 panels B, D, 3 fields of 1330 µm x 1330 µm
[6] = Fig S8 panels B, D, widefield fluorescence microscopy, 3 fields of 1330 µm x 1330 µm

Substance | viability 0.26 µM (TZM-bl cells) | viability 1.3 µM (TZM-bl cells) | viability 6.5 µM (TZM-bl cells) | Avg Area in 3 *(1330 µm *1330 µm) ([1]; Fig S8 panels A, C) | Log 10 Number of aggregates in 3 * (1330 µm *1330 µm) ([1]; Fig S8 panels A, C) | Median Area in 3 * (1330 µm *1330 µm) ([1]; Fig S8 panels A, C) | log Avg Area in 3 * ( (1330 µm *1330 µm)) ([1]; Fig S8 panels A, C) | log Median Area in 3 * ( (1330 µm *1330 µm)) ([1]; Fig S8 panels A, C) | log Total Area of all particles in 3 * (1330 µm *1330 µm) ([1]; Fig S8 panels A, C) | Number of aggregates in 3 * (1330 µm *1330 µm) [1, 2] | Avg Area in 3 *(1330 µm *1330 µm) [1, 3] | Median Area in 3 * (1330 µm *1330 µm) [1, 4] | Total Area of all particles in 3 * (1330 µm *1330 µm) [1, 5] | Number of aggregates in 3 * (1330 µm *1330 µm) [1, 6]
CKWKWQW [KB4] | 110.3 | 107 | 96.91 | 95.93 | 1.94 | 29.43 | 1.982 | 1.469 | 3.921 | 87 | 95.93 | 29.43 | 8346 | 87
CKFKQFFNM [CK14] | 126.1 | 113.2 | 106.7 | 31.08 | 2.848 | 15.21 | 1.4925 | 1.182 | 4.34 | 704 | 31.08 | 15.21 | 21881.13867 | 704
